# Measurements taken from PubChem BioAssay AID2060489 (Molecular Pharmacology Branch, DTP, NCI, 2025).
# Where “and” joins values, the source holds several entries; their conditions need not be identical. Identical values can stand only once.
# Test system: 922993-354-T-J3-PDC complex spheroids, viability
# Test: Anticancer human tumor 922993-354-T-J3-PDC patient-derived endometrial carcinoma cell line growth inhibition [GQUAD]
# Details: for viability, T/C: stronger effect = lower value
# Text: DNA G-quadruplex Stabilizer Agents in Combinations in Complex Spheroids
# A high-throughput screen of multi-cell type tumor spheroids was designed to identify active combinations of DNA G-quadruplex stabilizer agents and targeted small molecules. Complex spheroids include a stromal component modeled by human endothelial cells (HUVEC) and fibroblasts modeled by human mesenchymal stem cells (MSCs). The concentration ranges selected for each drug and investigational agent were based upon clinically achievable concentrations if the clinical Cmax of the agent was known.
# Compounds. The drugs and investigational agents: pidnarulex (CX-5461; NSC782164), APTO-253 (NSC789042), BRACO-19 (NSC847499), peposertib (NSC802822), ceralasertib (NSC780249), elimusertib (NSC800525), camonsertib (NSC841442), AZD-1390 (NSC803789), olaparib (NSC753686), talazoparib (NSC767125), ART-558 (NSC835418), sotorasib (NSC818433), MRTX-1133 (NSC836407), SN-38 (NSC673596), topotecan (NSC609699), etoposide (NSC141540), doxorubicin (NSC123127), gemcitabine (NSC613327), 5-fluorouracil (NSC19893), paclitaxel (NSC125973), vemurafenib (NSC761431), panobinostat (NSC761190), R-306465 (JNJ-16241199; NSC773264), adavosertib (NSC754352), TP-3654 (NSC805149), carboplatin (NSC241240), KSQ-4279 (NSC840948), and staurosporine (NSC755774) were obtained from the National Cancer Institute (NCI) Developmental Therapeutics Program Chemical Repository (34). The FDA-approved anticancer drug set is available from the NCI Developmental Therapeutics Program. […] The stock solutions were prepared in dimethyl sulfoxide (DMSO, Sigma-Aldrich, St. Louis, MO, cat. D2650) at 800-fold the tested concentration and stored at -70 degrees C prior to their use. All drugs and investigational agents were tested over a range starting from a high concentration at or near the clinical Cmax and decreasing in half-log increments. If the clinical Cmax for an agent had not been determined, the highest concentration tested was 10 microM.
# 2.3 Cell Culture. All cells were maintained in an incubator at 37 degrees C and 5% CO2 with 95% humidity. The PDC lines were cultured according to standard operating procedures established by the NCI PDMR. All PDCs were thawed and cultured in Matrigel-coated flasks prepared with a working solution of 1X Ham's F-12 nutrient mix, without supplementation (Invitrogen, cat. 11765054), 100 U/mL penicillin-streptomycin (Invitrogen, cat. 15140122), and 2.5% Matrigel (Corning Inc., cat. 354248) for the first three passages. The 857933-349-R-J2-PDC line was cultured in 6C/Colon 1B media, which includes advanced DMEM/F-12 (Thermo Fisher Scientific, cat. 12634028), 10 mM HEPES (Thermo Fisher Scientific, cat. 15630080), 1X GlutaMAX supplement (Thermo Fisher Scientific, cat. 35050061), 0.1 mg/mL primocin (InvivoGen, cat. ant-pm-2), 10% defined fetal bovine serum, heat inactivated (HyClone Laboratories Inc., cat. SH30070.03HI), 50% L-WRN conditioned media (ATCC, cat. CRL-3276), 1.25 mM N-Acetyl-L-cysteine (Sigma-Aldrich, cat. A9165), 10 mM nicotinamide (Sigma-Aldrich, cat. N0636), 1X B-27 supplement (Thermo Fisher Scientific, cat. 17504044), 1X N-2 supplement (Thermo Fisher Scientific, cat. 17502048), 10 microM Y-27632 dihydrochloride (Tocris Bioscience, cat. 1254), and 50 ng/mL human EGF recombinant protein (Thermo Fisher Scientific, cat. PHG0311). The 485176-168-R4-J1-PDC line was cultured in Panc media, which includes all 6C/Colon 1B media components plus 100 ng/mL human FGF-10 (Thermo Fisher Scientific, cat. 100-26), 500 nM SB-431542 (Selleckchem, cat. S1067), and gastrin (Tocris, cat. 3006).
# […]
# 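Further: spheroids exposed to compounds for seven days.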
# 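Wherever viability, T/C is given: 100% = DMSO vehicle control viability.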
structure (smiles),measurement,setting,value
CC(C)n1c(=O)n(C)c2cnc3cc(F)c(-c4ccc(OCCCN5CCCCC5)nc4)cc3c21 + Cc1cnc(CNC(=O)c2c(=O)c3ccc(N4CCCN(C)CC4)nc3n3c2sc2ccccc23)cn1,IC50,"curve of first compound, second compound 0.0316 µM",> 10000 nM
same,IC50,"curve of first compound, second compound 0.1 µM",255 nM
same,IC50,"curve of first compound, second compound 0.316 µM",< 31.6 nM
same,IC50,"curve of first compound, second compound 1 µM",480 nM
same,IC50,"curve of first compound, second compound 3.16 µM",< 31.6 nM
same,IC50,"curve of first compound, second compound 10 µM",< 31.6 nM
same,"viability, T/C","second compound 0.0316 µM, first compound 0.0316 µM",87.1%
same,"viability, T/C","second compound 0.0316 µM, first compound 0.1 µM",75%
same,"viability, T/C","second compound 0.0316 µM, first compound 0.316 µM",59.3%
same,"viability, T/C","second compound 0.0316 µM, first compound 1 µM",59.8%
same,"viability, T/C","second compound 0.0316 µM, first compound 3.16 µM",52.9%
same,"viability, T/C","second compound 0.0316 µM, first compound 10 µM",52%
same,"viability, T/C","second compound 0.1 µM, first compound 0.0316 µM",53.6%
same,"viability, T/C","second compound 0.1 µM, first compound 0.1 µM",54.5%
same,"viability, T/C","second compound 0.1 µM, first compound 0.316 µM",44.9%
same,"viability, T/C","second compound 0.1 µM, first compound 1 µM",45.4%
same,"viability, T/C","second compound 0.1 µM, first compound 3.16 µM",52.9%
same,"viability, T/C","second compound 0.1 µM, first compound 10 µM",41.6%
same,"viability, T/C","second compound 0.316 µM, first compound 0.0316 µM",52.2%
same,"viability, T/C","second compound 0.316 µM, first compound 0.1 µM",41.4%
same,"viability, T/C","second compound 0.316 µM, first compound 0.316 µM",46.9%
same,"viability, T/C","second compound 0.316 µM, first compound 1 µM",40%
same,"viability, T/C","second compound 0.316 µM, first compound 3.16 µM",59.2%
same,"viability, T/C","second compound 0.316 µM, first compound 10 µM",46.6%
same,"viability, T/C","second compound 1 µM, first compound 0.0316 µM",44.1%
same,"viability, T/C","second compound 1 µM, first compound 0.1 µM",53.9%
same,"viability, T/C","second compound 1 µM, first compound 0.316 µM",54.4%
same,"viability, T/C","second compound 1 µM, first compound 1 µM",49.5%
same,"viability, T/C","second compound 1 µM, first compound 3.16 µM",45.6%
same,"viability, T/C","second compound 1 µM, first compound 10 µM",38.6%
same,"viability, T/C","second compound 3.16 µM, first compound 0.0316 µM",45.4%
same,"viability, T/C","second compound 3.16 µM, first compound 0.1 µM",45.6%
same,"viability, T/C","second compound 3.16 µM, first compound 0.316 µM",49%
same,"viability, T/C","second compound 3.16 µM, first compound 1 µM",48.6%
same,"viability, T/C","second compound 3.16 µM, first compound 3.16 µM",58.8%
same,"viability, T/C","second compound 3.16 µM, first compound 10 µM",44.6%
same,"viability, T/C","second compound 10 µM, first compound 0.0316 µM",41.9%
same,"viability, T/C","second compound 10 µM, first compound 0.1 µM",43.6%
same,"viability, T/C","second compound 10 µM, first compound 0.316 µM",36.6%
same,"viability, T/C","second compound 10 µM, first compound 1 µM",42.1%
same,"viability, T/C","second compound 10 µM, first compound 3.16 µM",37.9%
same,"viability, T/C","second compound 10 µM, first compound 10 µM",28.3%
C#Cc1c(F)ccc2cc(O)cc(-c3ncc4c(N5CC6CCC(C5)N6)nc(OCC56CCCN5CC(F)C6)nc4c3F)c12 (centres undefined),"viability, T/C",compound 0.0316 µM,84.5% and 92.3% and 99.3%
same,"viability, T/C",compound 0.1 µM,82.8% and 84% and 92.6%
same,"viability, T/C",compound 0.316 µM,89.6% and 103% and 84.7%
same,"viability, T/C",compound 1 µM,92.7% and 82.5% and 106%
same,"viability, T/C",compound 3.16 µM,76.5% and 96.3% and 94.4%
same,"viability, T/C",compound 10 µM,96.1% and 82.3% and 91.5%
same,IC50,curve of compound,> 10000 nM
CC[C@@]1(O)C(=O)OCc2c1cc1n(c2=O)Cc2cc3c(CN(C)C)c(O)ccc3nc2-1,"viability, T/C",compound 0.000999 µM,111% and 105% and 82.9%
same,"viability, T/C",compound 0.00316 µM,80.6% and 108% and 97.9%
same,"viability, T/C",compound 0.00999 µM,113% and 76.5% and 112%
same,"viability, T/C",compound 0.0316 µM,85.2% and 98.8% and 103%
same,"viability, T/C",compound 0.0999 µM,71% and 84.4% and 94.9%
same,"viability, T/C",compound 0.316 µM,48.6% and 38.9% and 38.2%
same,IC50,curve of compound,298 nM and 241 nM and 249 nM
Cc1cccc(N(C)C(=O)C2C(O)CCN2c2nc(C)cc(C(F)(F)F)c2C#N)c1 (centres undefined),"viability, T/C",compound 0.0316 µM,90.6% and 93.6% and 97.1%
same,"viability, T/C",compound 0.1 µM,106% and 90.6% and 105%
same,"viability, T/C",compound 0.316 µM,83.6% and 87.3% and 122%
same,"viability, T/C",compound 1 µM,118% and 86.8% and 91.9%
same,"viability, T/C",compound 3.16 µM,122% and 71.7% and 102%
same,"viability, T/C",compound 10 µM,110% and 94.2% and 78.3%
same,IC50,curve of compound,> 10000 nM
Cc1cnc(CNC(=O)c2c(=O)c3ccc(N4CCCN(C)CC4)nc3n3c2sc2ccccc23)cn1,"viability, T/C",compound 0.0316 µM,83.9% [middle of 12 runs]
same,"viability, T/C",compound 0.1 µM,66% [middle of 12 runs]
same,"viability, T/C",compound 1 µM,53.7% [middle of 12 runs]
same,"viability, T/C",compound 3.16 µM,49.3% [middle of 12 runs]
same,"viability, T/C",compound 10 µM,46.9% [middle of 12 runs]
Cc1[nH]c2ccccc2c1CCNCc1ccc(/C=C/C(=O)NO)cc1,"viability, T/C",compound 0.000999 µM,83.6% and 110% and 88.9%
same,"viability, T/C",compound 0.00316 µM,102% and 93.8% and 74%
same,"viability, T/C",compound 0.00999 µM,70% and 75.6% and 89.6%
same,"viability, T/C",compound 0.0316 µM,101% and 89% and 85.7%
same,"viability, T/C",compound 0.0999 µM,63.2% and 87.7% and 68.7%
same,"viability, T/C",compound 0.316 µM,57.2% and 55.4% and 52.3%
same,IC50,curve of compound,> 316 nM
COc1cccc2c1C(=O)c1c(O)c3c(c(O)c1C2=O)CC(O)(C(=O)CO)CC3OC1CC(N)C(O)C(C)O1 (centres undefined),"viability, T/C",compound 0.0316 µM,101% and 78% and 112%
same,"viability, T/C",compound 0.1 µM,85.8% and 98% and 78.3%
same,"viability, T/C",compound 0.316 µM,83.7% and 94.3% and 93%
same,"viability, T/C",compound 1 µM,108% and 71.4% and 89.4%
same,"viability, T/C",compound 3.16 µM,68.2% and 64.5% and 86%
same,"viability, T/C",compound 10 µM,57.2% and 28.9% and 43.5%
same,IC50,curve of compound,> 10000 nM and 4820 nM and 8460 nM
CC1COCCN1c1cc(-c2ccnn2C)c2ccnc(-c3ccn[nH]3)c2n1 (centres undefined),"viability, T/C",compound 0.0316 µM,83.5% and 95% and 87.4%
same,"viability, T/C",compound 0.1 µM,71.5% and 63.7% and 70.4%
same,"viability, T/C",compound 0.316 µM,48.3% and 41.6% and 62.9%
same,"viability, T/C",compound 1 µM,22.1% and 12.8% and 28.7%
same,"viability, T/C",compound 3.16 µM,19.6% and 22% and 23.4%
same,"viability, T/C",compound 10 µM,16.8% and 19.2% and 17.7%
same,IC50,curve of compound,273 nM and 184 nM and 451 nM
